Assay results from ChEMBL document CHEMBL3991943, “Pharmaceutical formulations comprising salts of a protein kinase inhibitor and methods of using same” (2013).

Experiments:
[1] = Solubility of the compound in water by HPLC analysis; type: physicochemical
[2] = Solubility of the compound in PBS buffer at pH 7; type: physicochemical

O=S(=O)(O)O.S=C(NCc1ccc2c(c1)OCO2)N1CCN(c2ncnc3c2oc2ccccc23)CC1
solubility [1]: 3.3 µg/mL
solubility [2]: 1.7 µg/mL

Cc1ccc(S(=O)(=O)O)cc1.S=C(NCc1ccc2c(c1)OCO2)N1CCN(c2ncnc3c2oc2ccccc23)CC1
solubility [1]: 1.87 µg/mL

O=S(=O)(O)c1ccccc1.S=C(NCc1ccc2c(c1)OCO2)N1CCN(c2ncnc3c2oc2ccccc23)CC1
solubility [1]: 4.26 µg/mL

CS(=O)(=O)O.S=C(NCc1ccc2c(c1)OCO2)N1CCN(c2ncnc3c2oc2ccccc23)CC1
solubility [1]: 5.96 µg/mL
solubility [2]: 2.16 µg/mL
